US9873705B2, “Vinylogous thioester compounds and methods of use” (THE TRUSTEES OF DARTMOUTH COLLEGE, priority 2015, dated 2018)
Entries after “also recorded” stand apart in the source; their conditions may differ.

System: ROS in U87-MG cells
Assay: ROS detection by DCF-DA immunofluorescence
Type: cell-based, human
Conditions: Y102 2.2 or 4.5 μM 24 h, S1 20 μM 1 h, vs DMSO
Description: Damaged mitochondria generate and accumulate reactive oxygen species (ROS), which are damaging to the cell. RAS dysregulated tumors are reported to depend on autophagy in order to remove the damaged mitochondria and allow for their survival (22). […] The ROS detection reagent DCF-DA, which is converted to its fluorescent form DCF upon ROS-mediated oxidation, was used to examine if ROS levels increase with Y102 treatment.
The data for FIG. 5 was obtained as follows: U87-MG cells were plated on poly-D-lysine (Neuvitro Corporation) coated coverslips at a concentration of 50,000 cells/well in a 24-well plate and allowed to adhere overnight. Cells were treated for 24 h with DMSO, 2.2 μM Y102, or 4.5 μM Y102, or for 1 h with 20 μM S1. 30 minutes prior to treatment end, cells were stained with 20 μM 2′, 7′-dichlorofluorescin diacetate (DCFDA, Sigma, green) at 37° C. Following staining, cells were fixed for 10 minutes with 3.7% formaldehyde. After an additional two washes with PBST, cell nuclei were stained with 0.33 μg/mL DAPI (Molecular Probes) for 30 minutes (blue). Coverslips were mounted on glass slides with ProLong Gold antifade medium. Wide-field images were taken with a Zeiss Imager Z1 wide-field microscope using a 40×1.3 NA EC Plan-NEOFLUAR objective and Zeiss Axiovision software. Scale bar, 20 μm.

SMILES: Cn1cnnc1S/C=C/C(=O)c1ccc(F)cc1 [Y102]
- ROS accumulation (DCF-DA): ROS were found to accumulate; also recorded: accumulation of ROS
